# Key:
# Type in all cases: in vivo
# [1] = tested on: Experimental Autoimmune Encephalomyelitis (EAE); assay: Experimental Autoimmune Encephalomyelitis (EAE), progressive mouse model of MOG-driven inflammation
# Experimental: (§1) We confirmed the activity and dose-dependence of traditional GA regimens using daily GA injections (i.p.) at 0.2 or 2.0 mg/day beginning at disease onset in EAE (arrows; N=10/group). As discussed above, EAE is a progressive mouse model of MOG-driven inflammation that results in severe paralysis over several weeks; higher clinical scores indicate more severe disease (FIG. 3, panel A). Next we formulated GA-MNs (with sucrose stabilizer) such that a single MN patch contained 0.2 mg—confirmed by dissolution and fluorimetry—to match the ineffective injected GA dose in FIG. 3 panel A. The actual amount of GA delivered from MNs is likely less than the total GA loading due to accumulation on the backing. Mice were then treated at the ear on days 5, 10, 15, and 20 with GA-MNs or control MNs lacking GA (“Sucrose MN”). […] To analyze this approach in another inflammation model driven by a different myelin peptide—PLP, SJL/J mice were induced with relapsing-remitting EAE (RR-EAE) then treated on days 6, 9, and 12 (N=15/group) using equivalent doses 0.2 mg/treatment (tx) group of GA by MN or soluble i.p. injection.
# [2] = tested on: relapsing-remitting EAE (RR-EAE); assay: Relapsing-remitting EAE (RR-EAE) driven by PLP in SJL/J mice; details: 0.2 mg/treatment on days 6, 9, 12, by MN or soluble i.p. injection; for RR-EAE mean score: measured at the last treatment day
# Experimental: as §1
# [3] = tested on: lymphocytes, TREG, CD45+CD4+ T cells; assay: Flow cytometry of cervical LNs, spleen and spinal cord in RR-EAE mice; details: Day 10 and Day 12, relative to untreated mice with RR-EAE
# Experimental: To analyze this, we analyzed whether GA-MN could increase TREG, and, that because of the decreased clinical scores in FIG. 3, these effects might be evident in cervical LNs. Using analogous regimens to FIG. 3 panel D (RR-EAE), mice were euthanized at Day 10 and Day 12, then cervical LNs and spleen were assessed by flow cytometry. Relative to untreated mice with RR-EAE, GA-MN increased both the number of lymphocytes (FIG. 4 panel A) and the number of TREG (FIG. 4 panel B); these effects were not observed in mice treated with soluble GA. […] At day 12, we assessed the number of lymphocytes and activated CD4^+ T cells, as indicated by staining for CD45^+/CD4^+ cells. Though the group sizes (N=5) were insufficient for statistical significance, we observed a trend that GA-MN decreased the number of lymphocytes the spinal cord (FIG. 5 panel A), as well as the number of infiltrating CD45^+CD4^+ cells (FIG. 5 panels B and C). The data in these Examples indicate GA-MNs deliver GA through the skin of mice at doses that provide efficacy in EAE and RR-EAE.
substance,measurement,setting,value
glatiramer acetate [GA],"EAE clinical score, effect of injected GA",[1]; daily GA injections i.p. 0.2 mg/day beginning at disease onset,ineffective
same,"EAE clinical score, dose dependence of daily GA dosing",[1]; daily GA injections i.p. at 0.2 or 2.0 mg/day beginning at disease onset,dose-dependent effects
same,RR-EAE disease progression,[2]; listed as injectable GA,does not
same,RR-EAE disease progression,[2]; listed as soluble GA,no effect
same,RR-EAE mean score,[2]; listed as injectable GA,does not
same,RR-EAE mean score,[2]; listed as soluble GA,no effect
same,Number of TREG in cervical LNs,[3],not observed
same,Number of lymphocytes in cervical LNs,[3],not observed

# Reference: patent US20210000907A1, “MICRONEEDLE-MEDIATED DELIVERY OF TOLEROGENIC IMMUNOTHERAPEUTICS” (University of Maryland, College Park, priority 2017, published 2021)
